According to ChEMBL document CHEMBL1201862, “PubChem BioAssay data set” (2004):
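Assay format: 96-well plates, 48-hour exposure. GI50 is the concentration that inhibits growth by half.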 Active and inactive are the calls of the source. Rule as the data show it: active = GI50 up to about 1.1 µM and inactive = higher.

Key:
Assay in all cases: growth of human tumour cells (NCI), 48 h
SNB-19 = system: SNB-19
U-251 = system: U-251
786-0 = system: 786-0
A498 = system: A498
A549 = system: A549
ACHN = system: ACHN
CAKI-1 = system: CAKI-1
CCRF-CEM = system: CCRF-CEM
COLO 205 = system: COLO 205
DU-145 = system: DU-145
HCC 2998 = system: HCC 2998
HCT-116 = system: HCT-116
HCT-15 = system: HCT-15
HL-60 = system: HL-60
HOP-62 = system: HOP-62
HT-29 = system: HT-29
IGROV-1 = system: IGROV-1
K562 = system: K562
LOX IMVI = system: LOX IMVI
M14 = system: M14
MCF7 = system: MCF7
MDA-MB-231 = system: MDA-MB-231
MDA-MB-435 = system: MDA-MB-435
MDA-N = system: MDA-N
MOLT-4 = system: MOLT-4
Malme-3M = system: Malme-3M
NCI-H226 = system: NCI-H226
NCI-H23 = system: NCI-H23
NCI-H460 = system: NCI-H460
NCI-H522 = system: NCI-H522
NCI/ADR-RES = system: NCI/ADR-RES
OVCAR-3 = system: OVCAR-3
OVCAR-4 = system: OVCAR-4
OVCAR-5 = system: OVCAR-5
OVCAR-8 = system: OVCAR-8
PC-3 = system: PC-3
RXF 393 = system: RXF 393
SF-268 = system: SF-268
SF-295 = system: SF-295
SF-539 = system: SF-539
SK-MEL-28 = system: SK-MEL-28
SK-MEL-2 = system: SK-MEL-2
SK-MEL-5 = system: SK-MEL-5
SK-OV-3 = system: SK-OV-3
SN12C = system: SN12C
SNB-75 = system: SNB-75
SR = system: SR
SW-620 = system: SW-620
T47D = system: T47D
TK-10 = system: TK-10
UACC-257 = system: UACC-257
UO-31 = system: UO-31
EKVX = system: EKVX
HOP-92 = system: HOP-92
KM12 = system: KM12
RPMI-8226 = system: RPMI-8226
UACC-62 = system: UACC-62

Cc1cc(NCCCCCCNc2cc(C)nc3ccc(N)cc23)c2cc(N)ccc2n1
GI50 (SNB-19): 58.5 µM (inactive)
GI50 (U-251): 62.8 µM (inactive)

Cc1cc(C)n(-c2nc3ccccc3c(=O)n2-c2ccccc2)n1
GI50 (786-0): > 100 µM (inactive)
GI50 (A498): > 100 µM (inactive)
GI50 (A549): > 100 µM (inactive)
GI50 (ACHN): > 100 µM (inactive)
GI50 (CAKI-1): > 100 µM (inactive)
GI50 (CCRF-CEM): > 100 µM (inactive)
GI50 (COLO 205): > 100 µM (inactive)
GI50 (DU-145): > 100 µM (inactive)
GI50 (HCC 2998): > 100 µM (inactive)
GI50 (HCT-116): > 100 µM (inactive)
GI50 (HCT-15): > 100 µM
GI50 (HL-60): > 100 µM (inactive)
GI50 (HOP-62): > 100 µM (inactive)
GI50 (HT-29): > 100 µM (inactive)
GI50 (IGROV-1): > 100 µM (inactive)
GI50 (K562): > 100 µM (inactive)
GI50 (LOX IMVI): > 100 µM (inactive)
GI50 (M14): > 100 µM (inactive)
GI50 (MCF7): > 100 µM (inactive)
GI50 (MDA-MB-231): > 100 µM (inactive)
GI50 (MDA-MB-435): > 100 µM (inactive)
GI50 (MDA-N): > 100 µM (inactive)
GI50 (MOLT-4): > 100 µM (inactive)
GI50 (Malme-3M): > 100 µM (inactive)
GI50 (NCI-H226): > 100 µM (inactive)
GI50 (NCI-H23): > 100 µM (inactive)
GI50 (NCI-H460): > 100 µM (inactive)
GI50 (NCI-H522): > 100 µM (inactive)
GI50 (NCI/ADR-RES): > 100 µM (inactive)
GI50 (OVCAR-3): > 100 µM (inactive)
GI50 (OVCAR-4): > 100 µM (inactive)
GI50 (OVCAR-5): > 100 µM (inactive)
GI50 (OVCAR-8): > 100 µM (inactive)
GI50 (PC-3): > 100 µM (inactive)
GI50 (RXF 393): > 100 µM (inactive)
GI50 (SF-268): > 100 µM (inactive)
GI50 (SF-295): > 100 µM (inactive)
GI50 (SF-539): > 100 µM (inactive)
GI50 (SK-MEL-28): > 100 µM (inactive)
GI50 (SK-MEL-2): 67 µM (inactive)
GI50 (SK-MEL-5): > 100 µM (inactive)
GI50 (SK-OV-3): > 100 µM (inactive)
GI50 (SN12C): > 100 µM (inactive)
GI50 (SNB-19): > 100 µM (inactive)
GI50 (SNB-75): > 100 µM (inactive)
GI50 (SR): > 100 µM (inactive)
GI50 (SW-620): > 100 µM (inactive)
GI50 (T47D): > 100 µM (inactive)
GI50 (TK-10): > 100 µM (inactive)
GI50 (U-251): > 100 µM (inactive)
GI50 (UACC-257): > 100 µM (inactive)
GI50 (UO-31): 0.621 µM (active)

COCCOCN(C(=O)C1=CCC2(CC1)OCCO2)c1ccccc1I
GI50 (786-0): > 50 µM (inactive)
GI50 (A498): > 50 µM (inactive)
GI50 (A549): > 50 µM (inactive)
GI50 (ACHN): > 50 µM (inactive)
GI50 (CAKI-1): > 50 µM (inactive)
GI50 (CCRF-CEM): > 50 µM (inactive)
GI50 (COLO 205): > 50 µM (inactive)
GI50 (DU-145): > 50 µM (inactive)
GI50 (EKVX): 29.2 µM (inactive)
GI50 (HCC 2998): > 50 µM (inactive)
GI50 (HCT-116): > 50 µM (inactive)
GI50 (HCT-15): > 50 µM
GI50 (HOP-62): > 50 µM (inactive)
GI50 (HOP-92): > 50 µM (inactive)
GI50 (HT-29): > 50 µM (inactive)
GI50 (KM12): > 50 µM (inactive)
GI50 (LOX IMVI): > 50 µM (inactive)
GI50 (M14): > 50 µM (inactive)
GI50 (MCF7): > 50 µM (inactive)
GI50 (MDA-MB-231): > 50 µM (inactive)
GI50 (MDA-MB-435): > 50 µM (inactive)
GI50 (MDA-N): > 50 µM (inactive)
GI50 (MOLT-4): > 50 µM (inactive)
GI50 (NCI-H226): > 50 µM (inactive)
GI50 (NCI-H23): > 50 µM (inactive)
GI50 (NCI-H460): > 50 µM (inactive)
GI50 (NCI/ADR-RES): > 50 µM (inactive)
GI50 (OVCAR-3): > 50 µM (inactive)
GI50 (OVCAR-4): > 50 µM (inactive)
GI50 (OVCAR-5): > 50 µM (inactive)
GI50 (OVCAR-8): > 50 µM (inactive)
GI50 (PC-3): > 50 µM (inactive)
GI50 (RPMI-8226): > 50 µM (inactive)
GI50 (SF-295): > 50 µM (inactive)
GI50 (SK-MEL-28): > 50 µM (inactive)
GI50 (SK-MEL-2): > 50 µM (inactive)
GI50 (SK-MEL-5): > 50 µM (inactive)
GI50 (SK-OV-3): > 50 µM (inactive)
GI50 (SN12C): > 50 µM (inactive)
GI50 (SNB-19): > 50 µM (inactive)
GI50 (SNB-75): > 50 µM (inactive)
GI50 (SR): > 50 µM (inactive)
GI50 (SW-620): > 50 µM (inactive)
GI50 (T47D): > 50 µM (inactive)
GI50 (TK-10): > 50 µM (inactive)
GI50 (U-251): > 50 µM (inactive)
GI50 (UACC-257): > 50 µM (inactive)
GI50 (UACC-62): > 50 µM (inactive)
GI50 (UO-31): > 50 µM (inactive)

O=C1Oc2ccccc2C(=O)/C1=C/NC(=S)Nc1ccccc1
GI50 (A498): 24.6 µM (inactive)
GI50 (A549): 48.8 µM (inactive)
GI50 (ACHN): 23.6 µM (inactive)
GI50 (CCRF-CEM): 28.5 µM (inactive)
GI50 (COLO 205): 44.7 µM (inactive)
GI50 (DU-145): 46.1 µM (inactive)
GI50 (EKVX): 56.5 µM (inactive)
GI50 (HCC 2998): 40 µM (inactive)
GI50 (HCT-116): 34.8 µM (inactive)
GI50 (HCT-15): 28.3 µM
GI50 (HOP-62): 33.6 µM (inactive)
GI50 (K562): 56.4 µM (inactive)
GI50 (KM12): 49.4 µM (inactive)
GI50 (LOX IMVI): 51.1 µM (inactive)
GI50 (M14): 27 µM (inactive)
GI50 (MDA-MB-231): 29 µM (inactive)
GI50 (MDA-N): 37.8 µM (inactive)
GI50 (MOLT-4): 31.8 µM (inactive)
GI50 (NCI-H226): 65.9 µM (inactive)
GI50 (NCI-H23): 61.4 µM (inactive)
GI50 (NCI-H460): 32.1 µM (inactive)
GI50 (NCI-H522): 30.1 µM (inactive)
GI50 (NCI/ADR-RES): 38.5 µM (inactive)
GI50 (OVCAR-3): 25.4 µM (inactive)
GI50 (OVCAR-4): 39.6 µM (inactive)
GI50 (OVCAR-5): 80.4 µM (inactive)
GI50 (OVCAR-8): 44.3 µM (inactive)
GI50 (PC-3): 55.6 µM (inactive)
GI50 (RXF 393): 0.119 µM (active)
GI50 (SF-268): 22.3 µM (inactive)
GI50 (SF-295): 52.2 µM (inactive)
GI50 (SF-539): 28.7 µM (inactive)
GI50 (SK-MEL-28): 44.2 µM (inactive)
GI50 (SK-MEL-2): 15.1 µM (inactive)
GI50 (SK-MEL-5): 42.5 µM (inactive)
GI50 (SN12C): 40.1 µM (inactive)
GI50 (SNB-75): 20.4 µM (inactive)
GI50 (T47D): 5.96 µM (inactive)
GI50 (UACC-257): 77.6 µM (inactive)
GI50 (UACC-62): 0.834 µM (active)
